Source: patent US20230089073A1 (Carmot Therapeutics, Inc., priority 2021, published 2023)

Target: T1, human GLP-1 receptor (Homo sapiens, UniProt P43220)
T1 construct: expressed in transfected cells
Assay: GLP-1R cAMP Assay
Type: cell-based
Conditions: cAMP accumulation in CHO cells stably overexpressing the human GLP-1 receptor; 30 min treatment; HitHunter cAMP kit; read-out: EC50
In short: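 CHO cells stably overexpressing human GLP-1R, 10,000 cells/well, treated with compound in 20-point dose response in triplicate for 30 min. cAMP accumulation read by enzyme-complementation luminescence after lysis and overnight incubation; dose-response curves fitted.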

T1 sequence (P43220 24-463): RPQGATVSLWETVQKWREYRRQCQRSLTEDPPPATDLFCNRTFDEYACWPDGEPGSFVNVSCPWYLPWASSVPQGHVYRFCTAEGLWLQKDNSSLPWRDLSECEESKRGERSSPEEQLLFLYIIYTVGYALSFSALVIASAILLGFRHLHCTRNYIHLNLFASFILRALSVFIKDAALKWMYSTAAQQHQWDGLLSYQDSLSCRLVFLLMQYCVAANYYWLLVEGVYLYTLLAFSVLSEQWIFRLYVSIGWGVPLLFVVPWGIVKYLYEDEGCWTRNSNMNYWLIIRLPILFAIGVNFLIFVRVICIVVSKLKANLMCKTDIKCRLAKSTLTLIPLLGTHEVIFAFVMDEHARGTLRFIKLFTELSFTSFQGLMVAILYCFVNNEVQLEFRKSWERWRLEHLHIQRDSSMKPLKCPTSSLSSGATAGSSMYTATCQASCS

EC50	Structure (SMILES)
< 50 nM	O=C(O)c1ccc2nc(CN3CCC(Oc4cccc(COc5ccc(Cl)cc5Cl)c4)CC3)n(C[C@@H]3CCO3)c2c1 [Compound 174, 2-[(4-{3-[(2,4-dichlorophenoxy)methyl]phenoxy}piperidin-1-yl)methyl]-1-{[(2S)-oxetan-2-yl]methyl}-1H-1,3-benzodiazole-6-carboxylic acid]
< 50 nM	CCn1cncc1Cn1c(CN2CCC(Oc3cc(COc4ccc(Cl)cc4Cl)ccn3)CC2)nc2ccc(C(=O)O)cc21 [Compound 179, 2-{[4-({4-[(2,4-dichlorophenoxy)methyl]pyridin-2-yl}oxy)piperidin-1-yl]methyl}-1-[(1-ethyl-1H-imidazol-5-yl)methyl]-1H-1,3-benzodiazole-6-carboxylic acid]
< 50 nM	N#Cc1cc(Cl)ccc1OCc1cc(OC2CCN(Cc3nc4ccc(C(=O)O)cc4n3C[C@@H]3CCO3)CC2)ccn1 [Compound 182, 2-{[4-({2-[(4-chloro-2-cyanophenoxy)methyl]pyridin-4-yl}oxy)piperidin-1-yl]methyl}-1-{[(2S)-oxetan-2-yl]methyl}-1H-1,3-benzodiazole-6-carboxylic acid]
< 50 nM	N#Cc1cc(F)ccc1OCc1cc(OC2CCN(Cc3nc4ccc(C(=O)O)cc4n3C[C@@H]3CCO3)CC2)ccn1 [Compound 183, 2-{[4-({2-[(2-cyano-4-fluorophenoxy)methyl]pyridin-4-yl}oxy)piperidin-1-yl]methyl}-1-{[(2S)-oxetan-2-yl]methyl}-1H-1,3-benzodiazole-6-carboxylic acid]
< 50 nM	N#Cc1cc(F)ccc1OCc1cccc(CC2CCN(Cc3nc4ccc(C(=O)O)cc4n3C[C@@H]3CCO3)CC2)c1 [Compound 187, 2-{[4-({3-[(2-cyano-4-fluorophenoxy)methyl]phenyl}methyl)piperidin-1-yl]methyl}-1-{[(2S)-oxetan-2-yl]methyl}-1H-1,3-benzodiazole-6-carboxylic acid]
< 50 nM	CCn1cncc1Cn1c(CN2CCC(Cc3cccc(COc4ccc(F)cc4C#N)c3)CC2)nc2ccc(C(=O)O)cc21 [Compound 188, 2-{[4-({3-[(2-cyano-4-fluorophenoxy)methyl]phenyl}methyl)piperidin-1-yl]methyl}-1-[(1-ethyl-1H-imidazol-5-yl)methyl]-1H-1,3-benzodiazole-6-carboxylic acid]
< 50 nM	CCn1cncc1Cn1c(CN2CCC(Oc3cccc(COc4ccc(Cl)cc4Cl)n3)CC2)nc2ccc(C(=O)O)cc21 [Compound 199, 2-{[4-({6-[(2,4-dichlorophenoxy)methyl]pyridin-2-yl}oxy)piperidin-1-yl]methyl}-1-[(1-ethyl-1H-imidazol-5-yl)methyl]-1H-1,3-benzodiazole-6-carboxylic acid]
< 50 nM	O=C(O)c1ccc2nc(CN3CCC(Cc4cccc(OCc5ccc(Cl)cc5Cl)n4)CC3)n(C[C@@H]3CCO3)c2c1 [Compound 200, 2-{[4-({6-[(2,4-dichlorophenyl)methoxy]pyridin-2-yl}methyl)piperidin-1-yl]methyl}-1-{[(2S)-oxetan-2-yl]methyl}-1H-1,3-benzodiazole-6-carboxylic acid]
< 50 nM	O=C(O)c1ccc2nc(CN3CCC(Oc4cccc(OCc5ccc(F)cc5Cl)c4)CC3)n(C[C@@H]3CCO3)c2c1 [Compound 207]
< 50 nM	CCn1cncc1Cn1c(CN2CCC(Oc3cnc(COc4ccc(Cl)cc4Cl)o3)CC2)nc2ccc(C(=O)O)cc21 [Compound 214, 2-{[4-({2-[(2,4-dichlorophenoxy)methyl]-1,3-oxazol-5-yl}oxy)piperidin-1-yl]methyl}-1-[(1-ethyl-1H-imidazol-5-yl)methyl]-1H-1,3-benzodiazole-6-carboxylic acid]
< 50 nM	CCn1cncc1Cn1c(CN2CCC(Oc3cccc(COc4ccc(Cl)cc4C#N)c3)CC2)nc2ccc(C(=O)O)cc21 [Compound 215, 2-[(4-{3-[(4-chloro-2-cyanophenoxy)methyl]phenoxy}piperidin-1-yl)methyl]-1-[(1-ethyl-1H-imidazol-5-yl)methyl]-1H-1,3-benzodiazole-6-carboxylic acid]
< 50 nM	O=C(O)c1ccc2nc(CN3CCC(Oc4cccc(COc5ccc(Cl)cc5Cl)c4)CC3)n(Cc3ncco3)c2c1 [Compound 217, 2-[(4-{3-[(2,4-dichlorophenoxy)methyl]phenoxy}piperidin-1-yl)methyl]-1-[(1,3-oxazol-2-yl)methyl]-1H-1,3-benzodiazole-6-carboxylic acid]
< 50 nM	O=C(O)c1ccc2nc(CN3CCC(Oc4cccc(COc5ccc(Cl)cc5F)c4)CC3)n(C[C@@H]3CCO3)c2c1 [Compound 221, 2-[(4-{3-[(4-chloro-2-fluorophenoxy)methyl]phenoxy}piperidin-1-yl)methyl]-1-{[(2S)-oxetan-2-yl]methyl}-1H-1,3-benzodiazole-6-carboxylic acid]
< 50 nM	O=C(O)c1ccc2nc(CN3CCC(Oc4cccc(COc5ccc(Cl)cc5Cl)c4)CC3)n(C[C@@H]3CCO3)c2c1F [Compound 224, 2-[(4-{3-[(2,4-dichlorophenoxy)methyl]phenoxy}piperidin-1-yl)methyl]-7-fluoro-1-{[(2S)-oxetan-2-yl]methyl}-1H-1,3-benzodiazole-6-carboxylic acid]
< 50 nM	O=C(O)c1ccc2nc(CN3CCC(Oc4ccnc(COc5ccc(Cl)cc5Cl)c4)CC3)n(C[C@@H](O)CCO)c2c1 [Compound 227, 2-{[4-({2-[(2,4-dichlorophenoxy)methyl]pyridin-4-yl}oxy)piperidin-1-yl]methyl}-1-[(2S)-2,4-dihydroxybutyl]-1H-1,3-benzodiazole-6-carboxylic acid]
< 50 nM	CCn1cncc1Cn1c(CN2CCC(Oc3cccc(COc4ccc(Cl)cc4F)c3)CC2)nc2ccc(C(=O)O)cc21 [Compound 231, 2-[(4-{3-[(4-chloro-2-fluorophenoxy)methyl]phenoxy}piperidin-1-yl)methyl]-1-[(1-ethyl-1H-imidazol-5-yl)methyl]-1H-1,3-benzodiazole-6-carboxylic acid]
< 50 nM	N#Cc1cc(Cl)ccc1OCc1cccc(OC2CCN(Cc3nc4ccc(C(=O)O)cc4n3Cc3ncco3)CC2)c1 [Compound 232, 2-[(4-{3-[(4-chloro-2-cyanophenoxy)methyl]phenoxy}piperidin-1-yl)methyl]-1-[(1,3-oxazol-2-yl)methyl]-1H-1,3-benzodiazole-6-carboxylic acid]
< 50 nM	N#Cc1cc(Cl)ccc1OCc1cc(OC2CCN(Cc3nc4ccc(C(=O)O)cc4n3Cc3cnco3)CC2)ccn1 [Compound 240, 2-{[4-({2-[(4-chloro-2-cyanophenoxy)methyl]pyridin-4-yl}oxy)piperidin-1-yl]methyl}-1-[(1,3-oxazol-5-yl)methyl]-1H-1,3-benzodiazole-6-carboxylic acid]
< 50 nM	N#Cc1cc(Cl)ccc1OCc1cc(OC2CCN(Cc3nc4ccc(C(=O)O)cc4n3Cc3ccno3)CC2)ccn1 [Compound 241, 2-{[4-({2-[(4-chloro-2-cyanophenoxy)methyl]pyridin-4-yl}oxy)piperidin-1-yl]methyl}-1-[(1,2-oxazol-5-yl)methyl]-1H-1,3-benzodiazole-6-carboxylic acid]
< 50 nM	O=C(O)c1ccc2nc(CN3CCC(Oc4cccc(COc5cc(Cl)cc(Cl)c5)c4)CC3)n(C[C@@H]3CCO3)c2c1 [Compound 242, 2-[(4-{3-[(3,5-dichlorophenoxy)methyl]phenoxy}piperidin-1-yl)methyl]-1-{[(2S)-oxetan-2-yl]methyl}-1H-1,3-benzodiazole-6-carboxylic acid]
